# Laboratory results published in patent publication US20260060947A1 (INSTITUT PASTEUR DE MONTEVIDEO, priority 2019, published 2026).
# How the values were obtained:
# [1] = Cell viability / toxicity by sulforhodamine B assay; type: cell-based; settings: mouse, BV2 microglial cells; BV2 cell culture; read-out: LC50
# Method: (§1) The murine BV2 microglial cell line was used to analyze the toxicity and anti-inflammatory effects of BANA. Baseline cell viability was established in murine microglia cell line BV2 by sulforhodamine B assay. Briefly, cells were plated in a 96-multiwell plate and incubated with different concentrations of BANA (5-110 μM) for 24 h. After media removal, cells were washed twice with PBS pH=7.4. Cells were fixed with TCA for 1 hour at 4° C. and then washed five times with distilled water. 50 μL of sulforhodamine B 0.4% m/v in 1% acetic acid was added to each well and incubated 30 minutes at room temperature. After staining, the plate was washed at least five times with 1% acetic acid. Once the plate was dry the protein-bound dye was dissolved in 10 mM Tris and the absorbance at 570 nm was read using a microplate spectrophotometer (FIG. 3A).
# [2] = system: murine BV2 microglial cell line; test: as above; type: cell-based
# Method: as §1
# IL-1β = IL-1β in peritoneum and plasma of LPS-injected mice (ELISA); type: in vivo; settings: 50 mg/kg IP 1 h before LPS 10 mg/kg, measured 3 h later, compared to vehicle and BA
# Method: BANA (50 mg/kg), BA (50 mg/kg) or vehicle, were intraperitoneally (IP) injected 1 h before LPS intraperitoneal administration (10 mg/kg). 3 h later, IL-1β levels were measured in the peritoneum and plasma by ELISA.
# In turn, BANA was able to reduce IL-1β concentration in plasma and peritoneum of mice intraperitoneally injected with LPS respect to controls (FIGS. 8A-1 and 8A-2). BANA (50 mg/kg), BA (50 mg/kg) or vehicle, were intraperitoneally (IP) injected 1 h before LPS intraperitoneal administration (10 mg/kg). 3 h later, IL-1β levels were measured in the peritoneum and plasma by ELISA. […] All data are expressed as mean±SEM; data were analyzed by Ordinary one-way ANOVA followed by Tukey's multiple comparisons test, ***p=0.0002 ****p<0,0001. n=3 animals per condition.
# NF-κB = test: RT-qPCR of NF-κB-associated cytokine mRNA in LPS-stimulated SOD1^G93A primary microglia; type: cell-based, rat; settings: adult microglia isolated from symptomatic SOD1^G93A rats
# Method: FIG. 8F: Analysis by RT-qPCR of mRNA levels of NF-κB-associated proinflammatory cytokines CCL2, IL-6, IL-1β, and TNFα following LPS-stimulation in SOD1^G93A primary microglia.
# BANA inhibits LPS-induced NF-κB-p65 nuclear translocation in SOD1^G93A microglia. Nuclear NF-κB-p65 colocalizing with DAPI nuclear staining is denoted in yellow. […] All quantitative data are expressed as mean±SEM; data were analyzed by Ordinary one-way ANOVA followed by Tukey's multiple comparisons test, ****p<0,0001, 3 replicates of 4 independent experiments. Scale bar=20 μm. […] BANA prevents NF-κB-mediated gene transcription induced by LPS. Data are expressed as mean±SEM; data were analyzed by Ordinary one-way ANOVA followed by Tukey's multiple comparisons test, *p=0.0395 (CCL2) *p=0.0409 (IL-6) **p=0.0049 (IL-10) *p=0.0292 **p=0.0063 (TNFα). 2 replicates of 3 independent experiments.
smiles,measurement,setting,value
"O=C(O)c1ccc(/C=C/[N+](=O)[O-])cc1 [BANA, (E)-4-(2-nitrovinyl) benzoic acid]",CC50 at 24 h,[1],50 µM
same,IC50,"[2]; Mus musculus, BV-2, BV2 cells, BANA 5-110 μM, 24 h, sulforhodamine B",51.7 µM
same,toxicity to BV2 microglia,[2]; low micromolar concentrations,devoid of toxicity
same,IL-1β concentration in plasma,IL-1β,significantly reduces
same,IL-1β concentration in the peritoneum,IL-1β,significantly reduces
same,"LPS-induced NF-κB-dependent transcription of CCL2/MCP1, IL-6, IL-1β and TNFα (RT-qPCR)",NF-κB,prevented
